The text below walks through data of US8987321B2, “Lisofylline analogs and methods for use” (University of Virginia Patent Foundation, priority 2005, dated 2015).

The target in one data set is rCYP 2D6 (Homo sapiens, UniProt P10635). Kind of data set: rCYP450 inhibition, 2D6. The data set is classed as in vitro ADME. Set-up: concentration or dose not given beside the values. On the procedure: (§1) Further evaluations were performed for some of the LSF analogs in MDS assays, solubility, oral bioavailability, and stability (see Table 1). Analogs having greater than 50% inhibitory activity were considered to have high activity; analogs having from 20-49% inhibitory activity were considered to have medium activity; and analogs having less than 20 inhibitory activity were considered to have low activity

A further data set addresses T1, rCYP 1A2 (Homo sapiens, UniProt P05177).
T1 sequence (P05177 1-516): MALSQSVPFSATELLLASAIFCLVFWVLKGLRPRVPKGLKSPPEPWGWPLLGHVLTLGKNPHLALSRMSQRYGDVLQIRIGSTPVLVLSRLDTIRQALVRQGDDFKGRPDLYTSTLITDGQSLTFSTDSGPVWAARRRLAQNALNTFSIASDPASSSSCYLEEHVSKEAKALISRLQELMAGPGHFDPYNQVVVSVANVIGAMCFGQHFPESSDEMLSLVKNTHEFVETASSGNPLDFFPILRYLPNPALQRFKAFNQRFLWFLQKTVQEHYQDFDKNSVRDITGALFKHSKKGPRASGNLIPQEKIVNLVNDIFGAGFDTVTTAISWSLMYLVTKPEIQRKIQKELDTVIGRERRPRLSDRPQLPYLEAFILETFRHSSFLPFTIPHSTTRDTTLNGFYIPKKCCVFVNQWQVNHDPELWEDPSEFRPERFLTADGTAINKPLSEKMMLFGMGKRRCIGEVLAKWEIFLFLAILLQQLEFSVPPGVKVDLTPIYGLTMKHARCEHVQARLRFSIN
Kind of data set: rCYP450 inhibition, 1A2. The data set is classed as in vitro ADME. Also on record: concentration or dose not given beside the values. On the procedure: as §1

In the next data set the target is rCYP 2C19 (Homo sapiens, UniProt P33261). Put plainly: rCYP450 inhibition, 2C19. Type of data set: in vitro ADME. Also on record: concentration or dose not given beside the values. The protocol: as §1
A further data set in a line: Metabolic stability. The data set is classed as in vitro ADME. On the procedure:
Further evaluations were performed for some of the LSF analogs in MDS assays, solubility, oral bioavailability, and stability (see Table 1).

The target in another data set is rCYP 2C9 (Homo sapiens, UniProt P11712). Put plainly: rCYP450 inhibition, 2C9. Type of data set: in vitro ADME. Set-up: concentration or dose not given beside the values. The protocol: as §1
A further data set has as its target rCYP 3A4 (Homo sapiens, UniProt P08684). Put plainly: rCYP450 inhibition, 3A4. The data set is classed as in vitro ADME. Also on record: concentration or dose not given beside the values. The protocol:
as §1

Data set [1] deals with non-obese diabetic (NOD) mouse. The following applies: cited from earlier work.
Data set [2] concerns INS-1 cells. Kind of data set: Insulin secretion in INS-1 cells. As to conditions: 20 μM. Type of data set: cell-based, rat. On the procedure: The effects of LSF analogs on insulin secretion in INS-1 cells with and without inflammatory cytokines. β-Cells were treated with apoptosis detecting dye for 2-3 hours at room temperature. Apoptotic cells were recognized with purple-red color under a microscope. After washing to eliminate free dye and adding dye release reagent, color density was quantified by reading at OD 450 nm. At the end of treatment, cells were washed with Krebs-Ringer-bicarbonate-HEPES buffer (KRB) containing 134 mm NaCl, 4.7 mm KCl, 1.2 mm KH2PO4, 1.2 mm MgSO4, 1.0 mm CaCl2, 10 mm HEPES, and 0.1% BSA at 37° C., pH 7.4. The cells were preincubated in the same buffer for 30 min, followed by 60-min incubation in KRB supplemented with 15 mM D-glucose (J. T. Baker, Phillipsburg, N.J.). The supernatant was harvested and subjected to centrifugation to eliminate residue cells. Insulin secreted into the supernatant was measured by RIA with mouse insulin as a standard. The cells are maintained in basal (3 mM) and glucose-stimulated (28 mM). […] Insulin secretion in INS-1 cells: (a) LSF, (b) compound CPW11, and (c) compound CPW12. […]

Another data set relates to β-cells. As to conditions: maintains insulin secretory capability and cell viability; cited from earlier work.
For data set [3] the following is noted: cited from earlier work.
Data set [4] has as its system INS-1 cells. Kind of data set: Protection of INS-1 cells from cytokine-induced cell death. The following applies: IL-1β + IFNγ + TNFα, 18 hours. Type of data set: cell-based, rat. The protocol:
The effects of LSF analogs on β-cells in the […] insulin-secreting INS-1 cell line were investigated. Cells were maintained in RPMI 1640 medium (Life Technologies, Inc., Gaithersburg, Md.) supplemented with 10% heat-inactivated FBS, 10 mm HEPES, 200 μm L-glutamine, 1 mm sodium pyruvate, […] 2-mercaptoethanol, 50 U/ml penicillin, and 50 μg/ml streptomycin at pH 7.4. The cells were cultured at 37° C. in a humidified incubator supplied with 5% carbon dioxide. Fresh medium was replaced every 2 days. The cells were plated at a density of […]. Culture vessels were coated with poly-D-lysine and gelatin (Sigma, St. Louis, Mo.) to retain detached and dead cells so that seeding cell numbers reflect the actual cell numbers after all treatment conditions. INS-1 cells were treated with the combination of recombinant mouse IL-1β (5 ng/ml), IFNγ (100 ng/ml), and TNFα (10 ng/ml; R&D Systems, Inc., Minneapolis, Minn.) suspended in complete RPMI medium. LSF (provided by Cell Therapeutics, Inc., Seattle, Wash.) and analogs were added simultaneously with the cytokines in complete RPMI medium. All treatments were performed for 18 hours.
INS-1 cells were treated with a combination of recombinant IL-1β, INFγ, and TNFα with 10^−5-10^3 μM LSF and its analogs. […] There was no further increase in β-cell protection when the LSF concentration was increased from 10^−2 to 10^2 μM. […] No further increases in β-cell protection were observed when analog concentrations were increased.
The effects of LSF analogs on insulin secretion in INS-1 cells with and without inflammatory cytokines. β-Cells were treated with apoptosis detecting dye for 2-3 hours at room temperature. Apoptotic cells were recognized with purple-red color under a microscope. After washing to eliminate free dye and adding dye release reagent, color density was quantified by reading at OD 450 nm. […] Insulin secreted into the supernatant was measured by RIA with mouse insulin as a standard. […]

Chain of rCYP 2D6 (P10635 whole entry): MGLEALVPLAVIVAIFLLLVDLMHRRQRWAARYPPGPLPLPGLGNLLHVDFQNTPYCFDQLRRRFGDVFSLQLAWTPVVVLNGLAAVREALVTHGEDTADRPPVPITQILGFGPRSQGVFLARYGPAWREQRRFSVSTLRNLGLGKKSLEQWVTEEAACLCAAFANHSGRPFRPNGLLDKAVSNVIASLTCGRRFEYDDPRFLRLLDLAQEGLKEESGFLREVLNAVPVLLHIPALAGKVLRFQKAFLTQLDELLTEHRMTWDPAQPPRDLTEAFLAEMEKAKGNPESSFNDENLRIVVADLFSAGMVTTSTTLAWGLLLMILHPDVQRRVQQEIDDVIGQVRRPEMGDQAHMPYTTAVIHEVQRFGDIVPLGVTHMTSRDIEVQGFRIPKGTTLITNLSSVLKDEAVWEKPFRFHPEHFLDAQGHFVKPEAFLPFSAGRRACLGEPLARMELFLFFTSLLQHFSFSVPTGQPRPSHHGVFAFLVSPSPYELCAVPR
Chain of rCYP 2C19 (P33261 whole entry): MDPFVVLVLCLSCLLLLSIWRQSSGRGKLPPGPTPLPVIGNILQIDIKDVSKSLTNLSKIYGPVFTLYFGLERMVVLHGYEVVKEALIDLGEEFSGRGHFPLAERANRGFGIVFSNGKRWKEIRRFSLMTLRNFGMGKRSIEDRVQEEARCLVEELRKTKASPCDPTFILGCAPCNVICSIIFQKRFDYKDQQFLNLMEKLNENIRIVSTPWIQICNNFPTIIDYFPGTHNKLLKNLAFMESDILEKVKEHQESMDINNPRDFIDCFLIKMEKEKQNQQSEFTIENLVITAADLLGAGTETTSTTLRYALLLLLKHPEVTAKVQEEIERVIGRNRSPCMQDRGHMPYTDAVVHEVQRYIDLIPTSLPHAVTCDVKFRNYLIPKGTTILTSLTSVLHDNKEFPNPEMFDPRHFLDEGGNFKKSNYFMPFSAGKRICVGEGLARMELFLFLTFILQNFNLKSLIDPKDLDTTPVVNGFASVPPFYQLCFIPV
Chain of rCYP 2C9 (P11712 whole entry): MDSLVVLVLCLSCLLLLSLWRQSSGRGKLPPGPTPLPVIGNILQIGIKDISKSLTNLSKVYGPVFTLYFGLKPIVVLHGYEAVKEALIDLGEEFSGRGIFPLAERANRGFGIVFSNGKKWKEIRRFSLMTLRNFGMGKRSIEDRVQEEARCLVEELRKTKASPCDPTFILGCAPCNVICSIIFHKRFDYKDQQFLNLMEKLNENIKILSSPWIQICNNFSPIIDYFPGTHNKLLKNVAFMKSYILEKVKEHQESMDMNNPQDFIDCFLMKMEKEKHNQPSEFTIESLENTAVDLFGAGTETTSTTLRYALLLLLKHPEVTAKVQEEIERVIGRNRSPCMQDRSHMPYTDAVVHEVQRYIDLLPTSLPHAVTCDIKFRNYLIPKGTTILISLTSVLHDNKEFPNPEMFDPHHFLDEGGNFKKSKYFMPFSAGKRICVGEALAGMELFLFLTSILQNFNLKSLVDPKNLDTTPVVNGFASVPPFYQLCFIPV
Chain of rCYP 3A4 (P08684 whole entry): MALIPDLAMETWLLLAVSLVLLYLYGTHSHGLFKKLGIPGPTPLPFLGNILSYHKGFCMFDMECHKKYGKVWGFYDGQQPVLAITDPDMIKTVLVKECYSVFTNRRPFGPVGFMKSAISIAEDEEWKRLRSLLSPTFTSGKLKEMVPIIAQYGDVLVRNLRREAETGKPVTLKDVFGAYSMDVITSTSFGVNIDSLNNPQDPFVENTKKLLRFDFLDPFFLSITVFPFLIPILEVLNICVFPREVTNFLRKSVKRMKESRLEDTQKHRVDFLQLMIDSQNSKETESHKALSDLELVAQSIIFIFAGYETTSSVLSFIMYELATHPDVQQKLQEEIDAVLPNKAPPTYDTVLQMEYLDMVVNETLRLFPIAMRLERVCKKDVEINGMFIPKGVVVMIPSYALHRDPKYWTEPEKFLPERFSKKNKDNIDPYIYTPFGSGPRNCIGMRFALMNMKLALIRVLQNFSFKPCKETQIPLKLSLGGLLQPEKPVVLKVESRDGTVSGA

As to `C[C@@H](O)CCCCn1[nH]c(=O)n(-c2ccccc2)c1=O` [CPW9], the “rCYP % Inhibition 2D6” value at rCYP 2D6 stood at 2%. In addition, at rCYP 1A2, the “rCYP % Inhibition 1A2” value is on record as 5%. Besides, at rCYP 2C19, the “rCYP % Inhibition 2C19” value came out at 1%. In addition, the “Metabolic Stability Percent Remaining” value in the data set “Metabolic stability” is on record as 106%. Further, the “rCYP % Inhibition 2C9” value on rCYP 2C9 is reported as −12%. Further, at rCYP 3A4, the “rCYP % Inhibition 3A4” value was −4%.
With `C[C@@H](O)CCCCN1c2ccccc2Oc2ccccc21` [CPW20], the “rCYP % Inhibition 2D6” value on rCYP 2D6 is given as 73%. In addition, at rCYP 1A2, the “rCYP % Inhibition 1A2” value is 95%. Also, the “rCYP % Inhibition 2C19” value at rCYP 2C19 came to 98%. Further, the “Metabolic Stability Percent Remaining” value in the data set “Metabolic stability” stood at 19%. Further, the “rCYP % Inhibition 2C9” value on rCYP 2C9 was 86%. In addition, the “rCYP % Inhibition 3A4” value on rCYP 3A4 is 50%.
In the case of `C[C@@H]([O-])CCCCN1C(=O)COc2ccccc21.[Na+]` [CPW7], at rCYP 2D6, the “rCYP % Inhibition 2D6” value is 8%. Besides, the “rCYP % Inhibition 1A2” value on rCYP 1A2 amounted to 12%. Also, at rCYP 2C19, the “rCYP % Inhibition 2C19” value is 12%. For the same molecule, the “rCYP % Inhibition 2C9” value on rCYP 2C9 is given as 5%. At rCYP 3A4, the “rCYP % Inhibition 3A4” value was determined as 12%.
On to `CC(=O)O[C@H](C)CCCCn1[nH]c(=O)n(-c2ccccc2)c1=O` [CPW8], for which the “rCYP % Inhibition 2D6” value on rCYP 2D6 came out at 10%. The “rCYP % Inhibition 1A2” value at rCYP 1A2 was determined as 7%. For the same molecule, at rCYP 2C19, the “rCYP % Inhibition 2C19” value stood at 24%. The “Metabolic Stability Percent Remaining” value in the data set “Metabolic stability” was 45%. Further, the “rCYP % Inhibition 2C9” value at rCYP 2C9 stood at 5%. Moreover, the “rCYP % Inhibition 3A4” value on rCYP 3A4 is listed as 12%.
With `CC(=O)O[C@H](C)CCCCn1ccc2cc(Br)ccc21` [CPW1], at rCYP 2D6, the “rCYP % Inhibition 2D6” value is given as 80%. For the same molecule, the “rCYP % Inhibition 1A2” value at rCYP 1A2 is listed as 58%. Further, the “rCYP % Inhibition 2C19” value on rCYP 2C19 is given as 99%. For the same molecule, in “Metabolic stability”, the “Metabolic Stability Percent Remaining” value is 0%. Moreover, on rCYP 2C9, the “rCYP % Inhibition 2C9” value is listed as 86%. The “rCYP % Inhibition 3A4” value at rCYP 3A4 is listed as 57%.
Turning to `CC(O)CCCCN1C(=O)C(C)N(CCCCC(C)O)C(=O)C1C` (mixture of isomers) [CPW6], the “rCYP % Inhibition 2D6” value on rCYP 2D6 is 16%. Also, at rCYP 1A2, the “rCYP % Inhibition 1A2” value came to 13%. In addition, the “rCYP % Inhibition 2C19” value on rCYP 2C19 is 14%. For the same molecule, the “Metabolic Stability Percent Remaining” value in the data set “Metabolic stability” was 77%. Also, the “rCYP % Inhibition 2C9” value at rCYP 2C9 stood at 3%. Besides, on rCYP 3A4, the “rCYP % Inhibition 3A4” value stood at 14%.
Turning to `C[C@@H](O)CCCCOc1nn(CCCC[C@@H](C)O)c(=O)c2ccccc12` [CPW13], the “rCYP % Inhibition 2D6” value on rCYP 2D6 is recorded as −28%. In addition, the “rCYP % Inhibition 1A2” value on rCYP 1A2 was determined as 25%. The “rCYP % Inhibition 2C19” value at rCYP 2C19 amounted to 89%. Moreover, the “Metabolic Stability Percent Remaining” value in the data set “Metabolic stability” turned out to be 38%. The “rCYP % Inhibition 2C9” value on rCYP 2C9 was 92%. For the same molecule, the “rCYP % Inhibition 3A4” value on rCYP 3A4 is reported as −159%.
Turning to `C[C@@H](O)CCCCn1ccc2cc(Br)ccc21` [CPW4], on rCYP 2D6, the “rCYP % Inhibition 2D6” value is 50%. At rCYP 1A2, the “rCYP % Inhibition 1A2” value stood at 56%. The “rCYP % Inhibition 2C19” value at rCYP 2C19 worked out at 94%. Moreover, the “Metabolic Stability Percent Remaining” value in “Metabolic stability” is 0%. Also, at rCYP 2C9, the “rCYP % Inhibition 2C9” value stood at 38%. In addition, the “rCYP % Inhibition 3A4” value at rCYP 3A4 turned out to be 32%.
As to `C[C@@H](O)CCCCn1c(=O)c2c(ncn2C)n(C)c1=O` [LSF, 1-(5-R-hydroxyhexyl)-3,7-dimethylxanthine], the “spontaneous Type 1 diabetes development” value in [1] is “significantly reduce”. Also, the insulin release result in the data set with INS-1 cells [2] is reported as “Insulin release was observed”. In addition, the “protection of β-cells from inflammatory cytokine-mediated injuries” value with β-cells is reported as “able to protect β-cells”. Also, the oral bioavailability result in data set [3] is “not orally bioavailable”. Moreover, the “concentration of maximum protective effect” value in the data set with INS-1 cells [4] is 10^−2 μM.
